Results as given in patent publication US20070128217A1 (priority 2003, published 2007).

What was measured:
[1] = test system: antibodies in sera from SARS patients (sera 1a, 1b, 2, 6, 37, 62, London, SARS-yellow, SARS-green); assay type: binding, human; design: Binding of serum 6 to linear peptides of protein X1 of SARS-CoV Urbani / Binding of serum 37 to linear peptides of protein X1 of SARS-CoV Urbani / Binding of serum 6 to looped/cyclic peptide (PEPSCAN-ELISA) / Binding of serum 37 to looped/cyclic peptide (PEPSCAN-ELISA) / Binding of serum 37 to looped/cyclic peptides of protein X1 of SARS-CoV Urbani / Binding of serum 6 to linear peptides of protein X2 / Binding of serum 37 to linear peptides of protein X2 / Binding of serum 37 to looped/cyclic peptides of protein X2 of SARS-CoV Urbani / Binding of serum 6 to linear peptides of protein M of SARS-CoV Urbani / Binding of serum 37 to linear peptides of protein M of SARS-CoV Urbani / Binding of serum 6 to looped/cyclic peptides of protein M of SARS-CoV Urbani / Binding of serum 37 to looped/cyclic peptides of protein M of SARS-CoV Urbani / Binding of serum 6 to linear peptides of protein X3 of SARS-CoV Urbani / Binding of serum 37 to linear peptides of protein X3 of SARS-CoV Urbani / Binding of serum 37 to looped/cyclic peptides of protein X3 of SARS-CoV Urbani / Binding of serum 6 to linear peptides of protein X4 of SARS-CoV Urbani / Binding of serum 37 to linear peptides of protein X4 of SARS-CoV Urbani / Binding of serum 37 to looped/cyclic peptides of protein X4 of SARS-CoV Urbani / Binding of serum 6 to linear peptides of protein X5 of SARS-CoV Urbani / Binding of serum 37 to linear peptides of protein X5 of SARS-CoV Urbani / Binding of serum 37 to looped/cyclic peptides of protein X5 of SARS-CoV Urbani / Binding of serum 6 to linear peptides of protein N of SARS-CoV Urbani / Binding of serum 37 to linear peptides of protein N of SARS-CoV Urbani / Binding of serum 6 to linear peptide (PEPSCAN-ELISA) / Binding of serum 1a to looped/cyclic peptides of protein N of SARS-CoV Urbani / Binding of serum 1b to looped/cyclic peptides of protein N of SARS-CoV Urbani / Binding of serum 2 to looped/cyclic peptides of protein N of SARS-CoV Urbani / Binding of serum 6 to looped/cyclic peptides of protein N of SARS-CoV Urbani / Binding of serum 37 to looped/cyclic peptides of protein N of SARS-CoV Urbani / Binding of serum 62 to looped/cyclic peptides of protein N of SARS-CoV Urbani / Binding of serum London to looped/cyclic peptides of protein N of SARS-CoV Urbani / Binding of serum SARS-green to looped/cyclic peptides of protein N of SARS-CoV Urbani: unit not given here
[2] = test system: rabbit serum obtained by immunizing a rabbit with the SARS-CoV strain Frankfurt 1; assay type: binding; design: Binding of a rabbit serum to linear peptides / Binding of a rabbit serum to looped peptides / Rabbit serum linear peptides / Rabbit serum looped peptides / Binding of a rabbit serum to linear peptides of protein N of SARS-CoV Urbani (Rabbit serum linear peptides) / Binding of a rabbit serum to looped/cyclic peptides of protein N of SARS-CoV Urbani (Rabbit serum looped peptides): unit not given here
[3] = test system: control sera (pooled serum of ten healthy LUMC hospital workers; commercial negative donor pooled serum from the Dutch bloodbank); assay type: binding, human; design: Binding of Control serum LUMC to linear peptides / Binding of Control serum Blood-bank to linear peptides / Binding of Control serum LUMC to looped peptides / Binding of Control Serum Blood-Bank to Looped peptides / Binding of Control serum LUMC to linear peptides of the protein M of SARS-CoV Urbani / Binding of Control serum Blood-bank to linear peptides of the protein M of SARS-CoV Urbani / Binding of Control serum LUMC to looped peptides of the protein M of SARS-CoV Urbani / Binding of Control Serum Blood-Bank to Looped peptides of the protein M of SARS-CoV Urbani: unit not given here

EPCPSGTYEGNSPFH
Binding of serum 1a to linear peptides of protein X4 of SARS-CoV Urbani [1]: 0.7
Binding of serum 1a to looped/cyclic peptides of protein X4 of SARS-CoV Urbani [1]: 0.8
Binding of serum 1b to linear peptides of protein X4 of SARS-CoV Urbani [1]: 0.5
Binding of serum 1b to looped/cyclic peptides of protein X4 of SARS-CoV Urbani [1]: 0.6
Binding of serum 2 to linear peptides of protein X4 of SARS-CoV Urbani [1]: 0.4
Binding of serum 2 to looped/cyclic peptides of protein X4 of SARS-CoV Urbani [1]: 0.7
Binding of serum 6 to linear peptides of protein X4 of SARS-CoV Urbani [1]: 0.5
Binding of serum 6 to looped/cyclic peptides of protein X4 of SARS-CoV Urbani [1]: 0.6
Binding of serum 37 to linear peptides of protein X4 of SARS-CoV Urbani [1]: 0.6
Binding of serum 37 to looped/cyclic peptides of protein X4 of SARS-CoV Urbani [1]: 0.7
Binding of serum 62 to linear peptides of protein X4 of SARS-CoV Urbani [1]: 0.7
Binding of serum 62 to looped/cyclic peptides of protein X4 of SARS-CoV Urbani [1]: 0.6
Binding of serum London to linear peptides of protein X4 of SARS-CoV Urbani [1]: 0.7
Binding of serum London to looped/cyclic peptides of protein X4 of SARS-CoV Urbani [1]: 0.4
Binding of serum SARS-green to linear peptides of protein X4 of SARS-CoV Urbani [1]: 0.6
Binding of serum SARS-green to looped/cyclic peptides of protein X4 of SARS-CoV Urbani [1]: 0.5
Binding of serum SARS-yellow to linear peptides of protein X4 of SARS-CoV Urbani [1]: 0.9
Binding of serum SARS-yellow to looped/cyclic peptides of protein X4 of SARS-CoV Urbani [1]: 0.5
Rabbit serum linear peptides [2]: 0.6
Rabbit serum looped peptides [2]: 0.4
Binding of Control Serum Blood-Bank to Looped peptides [3]: 0.6
Binding of Control serum Blood-bank to linear peptides [3]: 0.6
Binding of Control serum LUMC to linear peptides [3]: 0.5
Binding of Control serum LUMC to looped peptides [3]: 0.8

ETNILLNVPLRGTIV
Binding of serum 1a to linear peptides of protein M of SARS-CoV Urbani [1]: 0.7
Binding of serum 1a to looped/cyclic peptides of protein M of SARS-CoV Urbani [1]: 0.5
Binding of serum 1b to linear peptides of protein M of SARS-CoV Urbani [1]: 0.5
Binding of serum 1b to looped/cyclic peptides of protein M of SARS-CoV Urbani [1]: 0.6
Binding of serum 2 to linear peptides of protein M of SARS-CoV Urbani [1]: 0.5
Binding of serum 2 to looped/cyclic peptides of protein M of SARS-CoV Urbani [1]: 0.7
Binding of serum 6 to linear peptides of protein M of SARS-CoV Urbani [1]: 0.4
Binding of serum 6 to looped/cyclic peptides of protein M of SARS-CoV Urbani [1]: 0.8
Binding of serum 37 to linear peptides of protein M of SARS-CoV Urbani [1]: 0.6
Binding of serum 37 to looped/cyclic peptides of protein M of SARS-CoV Urbani [1]: 0.4
Binding of serum 62 to linear peptides of protein M of SARS-CoV Urbani [1]: 0.7
Binding of serum 62 to looped/cyclic peptides of protein M of SARS-CoV Urbani [1]: 0.5
Binding of serum London to linear peptides of protein M of SARS-CoV Urbani [1]: 0.4
Binding of serum London to looped/cyclic peptides of protein M of SARS-CoV Urbani [1]: 0.2
Binding of serum SARS-green to linear peptides of protein M of SARS-CoV Urbani [1]: 0.3
Binding of serum SARS-green to looped/cyclic peptides of protein M of SARS-CoV Urbani [1]: 0.2
Binding of serum SARS-yellow to linear peptides of protein M of SARS-CoV Urbani [1]: 0.1
Binding of serum SARS-yellow to looped/cyclic peptides of protein M of SARS-CoV Urbani [1]: 0.5
Rabbit serum linear peptides [2]: 0.5
Rabbit serum looped peptides [2]: 0.0
Binding of Control Serum Blood-Bank to Looped peptides of the protein M of SARS-CoV Urbani [3]: 1.0
Binding of Control serum Blood-bank to linear peptides of the protein M of SARS-CoV Urbani [3]: 0.7
Binding of Control serum LUMC to linear peptides of the protein M of SARS-CoV Urbani [3]: 0.3
Binding of Control serum LUMC to looped peptides of the protein M of SARS-CoV Urbani [3]: 0.9

EVYYQLESTQITTDT
Binding of serum 1a to linear peptides of protein X1 of SARS-CoV Urbani [1]: 0.7
Binding of serum 1a to looped/cyclic peptides of protein X1 of SARS-CoV Urbani [1]: 0.5
Binding of serum 1b to linear peptides of protein X1 of SARS-CoV Urbani [1]: 0.6
Binding of serum 1b to looped/cyclic peptides of protein X1 of SARS-CoV Urbani [1]: 0.4
Binding of serum 2 to linear peptides of protein X1 of SARS-CoV Urbani [1]: 0.4
Binding of serum 2 to looped/cyclic peptides of protein X1 of SARS-CoV Urbani [1]: 0.1
Binding of serum 6 to linear peptides of protein X1 of SARS-CoV Urbani [1]: 0.5
Binding of serum 6 to looped/cyclic peptides of protein X1 of SARS-CoV Urbani [1]: 0.2
Binding of serum 37 to linear peptides of protein X1 of SARS-CoV Urbani [1]: 0.7
Binding of serum 37 to looped/cyclic peptides of protein X1 of SARS-CoV Urbani [1]: 0.5
Binding of serum 62 to linear peptides of protein X1 of SARS-CoV Urbani [1]: 0.4
Binding of serum 62 to looped/cyclic peptides of protein X1 of SARS-CoV Urbani [1]: 0.5
Binding of serum London to linear peptides of protein X1 of SARS-CoV Urbani [1]: 0.3
Binding of serum London to looped/cyclic peptides of protein X1 of SARS-CoV Urbani [1]: 0.2
Binding of serum SARS-green to linear peptides of protein X1 of SARS-CoV Urbani [1]: 0.2
Binding of serum SARS-green to looped/cyclic peptides of protein X1 of SARS-CoV Urbani [1]: 0.3
Binding of serum SARS-yellow to linear peptides of protein X1 of SARS-CoV Urbani [1]: 0.3
Binding of serum SARS-yellow to looped/cyclic peptides of protein X1 of SARS-CoV Urbani [1]: 0.3
Binding of a rabbit serum to linear peptides [2]: 0.1
Binding of a rabbit serum to looped peptides [2]: 0.4
Binding of Control Serum Blood-Bank to Looped peptides [3]: 0.5
Binding of Control serum Blood-bank to linear peptides [3]: 0.4
Binding of Control serum LUMC to linear peptides [3]: 0.4
Binding of Control serum LUMC to looped peptides [3]: 0.4
